One assay has as its target DPP4 (Homo sapiens, UniProt P27487). The experiment in a line: DPP4 inhibition, fluorogenic substrate H-Gly-Pro-AMC. It is filed as biochemical. Also on record: purchased R&D Systems. As to conditions: recombinant human DPP4.
For another assay, the target named is T1, Recombinant human FAP (Homo sapiens, UniProt Q12884).
T1 construct: purchased R&D systems
T1 sequence (Q12884 1-760): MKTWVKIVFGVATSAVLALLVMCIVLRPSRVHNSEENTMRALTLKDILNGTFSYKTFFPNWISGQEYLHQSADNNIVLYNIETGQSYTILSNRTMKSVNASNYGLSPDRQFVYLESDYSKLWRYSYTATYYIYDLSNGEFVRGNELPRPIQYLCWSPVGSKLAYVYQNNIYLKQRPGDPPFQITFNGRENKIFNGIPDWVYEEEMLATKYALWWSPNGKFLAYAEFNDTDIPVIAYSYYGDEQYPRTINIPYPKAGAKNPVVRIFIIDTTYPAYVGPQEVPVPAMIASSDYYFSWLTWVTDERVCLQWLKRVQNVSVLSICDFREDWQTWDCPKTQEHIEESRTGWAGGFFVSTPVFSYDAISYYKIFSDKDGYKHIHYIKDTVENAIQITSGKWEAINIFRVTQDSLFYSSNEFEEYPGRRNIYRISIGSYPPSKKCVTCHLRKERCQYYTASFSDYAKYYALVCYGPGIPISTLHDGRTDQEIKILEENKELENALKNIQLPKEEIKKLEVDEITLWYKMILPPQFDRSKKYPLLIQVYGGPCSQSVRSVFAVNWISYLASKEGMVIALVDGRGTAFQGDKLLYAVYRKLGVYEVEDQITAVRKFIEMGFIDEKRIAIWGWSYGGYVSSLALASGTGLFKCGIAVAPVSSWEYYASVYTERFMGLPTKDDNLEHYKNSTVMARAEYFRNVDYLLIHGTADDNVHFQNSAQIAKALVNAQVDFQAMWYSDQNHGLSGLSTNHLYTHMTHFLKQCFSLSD
The experiment in a line: FAP FRET assay, FGF21-sequence FRET peptide substrate. It is filed as biochemical. As to conditions: FRET peptide with human FGF21 sequence, 6 μM, 37° C. The method, then: The compounds according to the present technology were evaluated in terms of the inhibitory effect on the activity of dipeptidyl peptidases including FAP by using a substrate producing fluorescent substances upon enzymatic decomposition. The test was conducted at 25° C. to get a final reaction volume of 100 μL in a 96 black well plate. […] Briefly, the test compounds were dissolved in dimethyl sulfoxide (DMSO) at a concentration of 20 mM and then subjected to serial dilution, thereby creating an 8 point curve. As for the control group, a 6 point curve created by serial dilution of Talabostat in the same buffer solution was used. Fluorescence intensity was measured using a microplate reader (Flexstation3, Molecular Devices) under the wavelength condition exciting at 380 nm and reading the emission at 460 nm. The inhibitory effect of the test compounds was measured as a decrease (%) in the signal rate as compared to the control group without any inhibitor. Data was fixed to a logistic model with four variables and IC50 value was calculated using GraphPad Prism program. For the FAP FRET assay, recombinant human FAP (R&D systems) was diluted with 50 mM HEPES (pH 7.2) buffer comprising 150 mM of sodium chloride, 0.1 mg/ml of bovine serum albumin (BSA) and 1 mM EDTA to be 10 ng per final reaction. The test compounds were subjected to serial dilution in a buffer under the condition containing up to 0.1% of DMSO. FRET peptides containing human FGF21 sequence ([…]) conjugated with HyLite Fluor 488 and dark quencher QXL 520 (Anaspec) was used as a substrate. By dissolving in DMSO and then diluting in the same buffer, the substrate was added to be 6 μM per final reaction. All reactions of FRET assay was conducted at 37° C.

This passage reports IC50 results from patent US11655235B2, “Pyrrolidine and piperidine compounds” (YUHAN CORPORATION, priority 2019, dated 2023).

SMILES strings stand for the structures. Some results are limits rather than exact numbers.

Sequence of DPP4 (P27487 whole entry): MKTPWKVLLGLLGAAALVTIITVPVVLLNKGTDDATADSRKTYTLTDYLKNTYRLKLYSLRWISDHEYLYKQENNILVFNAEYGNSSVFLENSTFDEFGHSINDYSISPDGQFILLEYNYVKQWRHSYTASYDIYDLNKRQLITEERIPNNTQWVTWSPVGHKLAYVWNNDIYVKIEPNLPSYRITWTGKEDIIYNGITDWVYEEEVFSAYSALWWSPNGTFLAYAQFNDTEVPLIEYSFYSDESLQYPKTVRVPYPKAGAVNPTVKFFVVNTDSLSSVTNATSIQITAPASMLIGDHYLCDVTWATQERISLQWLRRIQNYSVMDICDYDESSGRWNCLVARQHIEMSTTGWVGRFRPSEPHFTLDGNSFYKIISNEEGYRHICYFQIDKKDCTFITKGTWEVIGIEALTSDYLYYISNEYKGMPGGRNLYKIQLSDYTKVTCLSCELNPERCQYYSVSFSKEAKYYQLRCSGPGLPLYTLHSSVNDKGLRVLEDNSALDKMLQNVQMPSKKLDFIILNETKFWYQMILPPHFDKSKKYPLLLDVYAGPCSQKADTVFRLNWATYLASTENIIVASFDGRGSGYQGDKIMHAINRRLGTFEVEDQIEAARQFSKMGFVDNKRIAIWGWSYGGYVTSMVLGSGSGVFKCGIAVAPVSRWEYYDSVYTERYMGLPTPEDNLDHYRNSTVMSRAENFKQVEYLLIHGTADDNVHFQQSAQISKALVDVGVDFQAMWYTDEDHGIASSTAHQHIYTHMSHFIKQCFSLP

As usually defined, the IC50 is the concentration at which inhibition is half-maximal. For `Cc1ccc2nccc(N[C@@H]3CCN(CC(=O)N4CCC[C@H]4C#N)C3)c2c1` [Example 223, (2S)-1-[2-[(3R)-3-[(6-methyl-4-quinolyl)amino]pyrrolidin-1-yl]acetyl]pyrrolidine-2-carbonitrile], the values for the IC50 at DPP4 and on Recombinant human FAP were 92500 nM and 13.1 nM, respectively.

Regarding `COc1ccc2nccc(N[C@@H]3CCN(CC(=O)N4CCC[C@H]4C#N)C3)c2c1` [Example 224, (2S)-1-[2-[(3R)-3-[(6-methoxy-4-quinolyl)amino]pyrrolidin-1-yl]acetyl]pyrrolidine-2-carbonitrile], the IC50 at DPP4 amounted to 54200 nM; at Recombinant human FAP it was 10 nM.

Consider `N#C[C@@H]1CCCN1C(=O)CN1CC[C@@H](Nc2ccnc3ccc(F)cc23)C1` [Example 225, (2S)-1-[2-[(3R)-3-[(6-fluoro-4-quinolyl)amino]pyrrolidin-1-yl]acetyl]pyrrolidine-2-carbonitrile], for which the results for the IC50 at DPP4 and at Recombinant human FAP were 34200 nM and 7.2 nM, respectively.

With `N#C[C@@H]1CCCN1C(=O)CN1CC[C@@H](Nc2ccnc3ccc(Cl)cc23)C1` [Example 226, (2S)-1-[2-[(3R)-3-[(6-chloro-4-quinolyl)amino]pyrrolidin-1-yl]acetyl]pyrrolidine-2-carbonitrile], the IC50 on DPP4 stood at 37900 nM; on Recombinant human FAP, 4.8 nM.

`N#C[C@@H]1CCCN1C(=O)CN1CC[C@@H](Nc2ccnc3c(F)cccc23)C1` [Example 227, (2S)-1-[2-[(3R)-3-[(8-fluoro-4-quinolyl)amino]pyrrolidin-1-yl]acetyl]pyrrolidine-2-carbonitrile]: the results for the IC50 on DPP4 and on Recombinant human FAP were 31700 nM and 7.2 nM, respectively.

Turning to `N#C[C@@H]1C[C@H](F)CN1C(=O)CN1CC[C@H](Nc2cnc3ncccc3c2)C1` [Example 272, (2S,4S)-4-fluoro-1-[2-[(3S)-3-(1,8-naphthyridin-3-ylamino)pyrrolidin-1-yl]acetyl]pyrrolidine-2-carbonitrile], the IC50 on DPP4 was 2800 nM; at Recombinant human FAP, 16.3 nM.

Regarding `N#C[C@@H]1C[C@H](F)CN1C(=O)CN1CC[C@H](Nc2cnc3nc(Cl)ccc3c2)C1` [Example 273, (2S,4S)-4-fluoro-1-[2-[(3S)-3-[(7-chloro-1,8-naphthyridin-3-yl)amino]pyrrolidin-1-yl]acetyl]pyrrolidine-2-carbonitrile], the IC50 at DPP4 stood at 530 nM; on Recombinant human FAP, 19 nM.

With `CN(C(=O)c1ccc(N[C@H]2CCN(CC(=O)N3CCC[C@H]3C#N)C2)c2cccnc12)c1ccccc1` [Example 289, N-methyl-N-phenyl-5-[[(3S)-1-[2-oxo-2-[(2S)-2-cyanopyrrolidin-1-yl]ethyl]pyrrolidin-3-yl]amino]quinoline-8-carboxamide], the figures for the IC50 on DPP4 and on Recombinant human FAP were 14200 nM and 36.3 nM, respectively.

For `CCN(c1cccc2ncccc12)C1CCN(CC(=O)N2C[C@@H](F)C[C@H]2C#N)CC1` [Example 305, (2S,4S)-1-[2-[4-[ethyl(5-quinolyl)amino]-1-piperidyl]acetyl]-4-fluoro-pyrrolidine-2-carbonitrile], the IC50 on DPP4 was 2080 nM; at Recombinant human FAP, 50.7 nM.

As to `Cc1ccc2ncc(N(C)C3CCN(CC(=O)N4CCC[C@H]4C#N)CC3)cc2c1` [Example 322, (2S)-1-[2-[4-[methyl-(6-methyl-3-quinolyl)amino]-1-piperidyl]acetyl]pyrrolidine-2-carbonitrile], the IC50 on DPP4 is at least 100000 nM; on Recombinant human FAP it was 10.3 nM.

With `COc1ccc2ncc(N(C)C3CCN(CC(=O)N4CCC[C@H]4C#N)CC3)cc2c1` [Example 323, (S)-1-(2-(4-((6-methoxyquinolin-3-yl)(methyl)amino)piperidin-1-yl)acetyl)pyrrolidine-2-carbonitrile], the IC50 is at least 100000 nM on DPP4 and 5.8 nM on Recombinant human FAP.

For the compound `COc1ccc2cc(N(C)C3CCN(CC(=O)N4CCC[C@H]4C#N)CC3)cnc2c1` [Example 324, (2S)-1-[2-[4-[(7-methoxy-3-quinolyl)-methyl-amino]-1-piperidyl]acetyl]pyrrolidine-2-carbonitrile], the IC50 is at least 100000 nM on DPP4 and 25 nM on Recombinant human FAP.

Turning to `COc1cccc2cc(N(C)C3CCN(CC(=O)N4CCC[C@H]4C#N)CC3)cnc12` [Example 325, (2S)-1-[2-[4-[methyl-(8-methoxy-3-quinolyl)amino]-1-piperidyl]acetyl]pyrrolidine-2-carbonitrile], the IC50 on DPP4 is at least 100000 nM; at Recombinant human FAP it was 8.9 nM.

Consider `Cc1ccc2ncc(N(C)C3CCN(CC(=O)N4C[C@@H](F)C[C@H]4C#N)CC3)cc2c1` [Example 326, (2S,4S)-4-fluoro-1-[2-[4-[methyl-(6-methyl-3-quinolyl)amino]-1-piperidyl]acetyl]pyrrolidine-2-carbonitrile], for which the results for the IC50 on DPP4 and on Recombinant human FAP were 50600 nM and 8.8 nM, respectively.

`COc1ccc2ncc(N(C)C3CCN(CC(=O)N4C[C@@H](F)C[C@H]4C#N)CC3)cc2c1` [Example 327, (2S,4S)-4-fluoro-1-(2-(4-((6-methoxyquinolin-3-yl)(methyl)amino)piperidin-1-yl)acetyl)pyrrolidine-2-carbonitrile]: the IC50 on DPP4 was 31500 nM; on Recombinant human FAP it was 3.1 nM.

As to `COc1ccc2cc(N(C)C3CCN(CC(=O)N4C[C@@H](F)C[C@H]4C#N)CC3)cnc2c1` [Example 328, (2S,4S)-4-fluoro-1-(2-(4-((7-methoxyquinolin-3-yl)(methyl)amino)piperidin-1-yl)acetyl)pyrrolidine-2-carbonitrile], the concentration for half-maximal inhibition (IC50) at DPP4 was determined as 21400 nM; on Recombinant human FAP, 6 nM.

For the compound `COc1cccc2cc(N(C)C3CCN(CC(=O)N4C[C@@H](F)C[C@H]4C#N)CC3)cnc12` [Example 329, (2S,4S)-4-fluoro-1-[2-[4-[(8-methoxy-3-quinolyl)-methyl-amino]-1-piperidyl]acetyl]pyrrolidine-2-carbonitrile], the results for the IC50 at DPP4 and at Recombinant human FAP were 26300 nM and 7.5 nM, respectively.

For the compound `Cc1cccc2c(NC3CCN(CC(=O)N4C[C@@H](F)C[C@H]4C#N)CC3)ccnc12` [Example 343, (2S,4S)-4-fluoro-1-[2-[4-[(8-methyl-4-quinolyl)amino]-1-piperidyl]acetyl]pyrrolidine-2-carbonitrile], the figures for the 50% inhibitory concentration (IC50) at DPP4 and on Recombinant human FAP were 17400 nM and 30.7 nM, respectively.

Take `N#C[C@@H]1C[C@H](F)CN1C(=O)CN1CCC(Nc2ccnc3c(F)cccc23)CC1` [Example 345, (2S,4S)-4-fluoro-1-[2-[4-[(8-fluoro-4-quinolyl)amino]-1-piperidyl]acetyl]pyrrolidine-2-carbonitrile]: the IC50 at DPP4 is 6470 nM; at Recombinant human FAP, 19.3 nM.

As to `Cc1ccc2ncc(NC3CCN(CC(=O)N4C[C@@H](F)C[C@H]4C#N)CC3)cc2c1` [Example 363, (2S,4S)-4-fluoro-1-[2-[4-[(6-methyl-3-quinolyl)amino]-1-piperidyl]acetyl]pyrrolidine-2-carbonitrile], the IC50 was at least 10000 nM on DPP4 and 30.6 nM on Recombinant human FAP.

As for `N#C[C@@H]1C[C@H](F)CN1C(=O)CN1CCC(Nc2cnc3ccc(F)cc3c2)CC1` [Example 364, (2S,4S)-4-fluoro-1-[2-[4-[(6-fluoro-3-quinolyl)amino]-1-piperidyl]acetyl]pyrrolidine-2-carbonitrile], the IC50 on DPP4 was 9130 nM; at Recombinant human FAP, 17.2 nM.

`COc1ccc2ncc(NC3CCN(CC(=O)N4C[C@@H](F)C[C@H]4C#N)CC3)cc2c1` [Example 365, (2S,4S)-4-fluoro-1-[2-[4-[(6-methoxy-3-quinolyl)amino]-1-piperidyl]acetyl]pyrrolidine-2-carbonitrile]: the 50% inhibitory concentration (IC50) at DPP4 is at least 10000 nM; at Recombinant human FAP, 22.3 nM.

`COc1ccc2cc(NC3CCN(CC(=O)N4C[C@@H](F)C[C@H]4C#N)CC3)cnc2c1` [Example 366, (2S,4S)-4-fluoro-1-[2-[4-[(7-methoxy-3-quinolyl)amino]-1-piperidyl]acetyl]pyrrolidine-2-carbonitrile]: the IC50 on DPP4 was at least 10000 nM; at Recombinant human FAP, 36 nM.
